According to article PMC7717616, “A nanobody-derived mimotope against VEGF inhibits cancer angiogenesis” (Journal of Enzyme Inhibition and Medicinal Chemistry, 2020):
Read-outs that look alike come from different tables or passages of the source. Square brackets hold non-standard residues; d marks the D form. Ends that are not written are not given here. Abu = CC[C@H](N)C(=O)O

Tests used:
[1] = tested on: HUVEC cells; assay: MTT assay, inhibition of HUVEC proliferation; assay type: cell-based; conditions: for IC50: HUVEC growth; for inhibition of cell growth, 24 h / inhibition of cell growth, 48 h: 1000 nM
Experimental: The HUVEC cell line was purchased from the Pasteur Institute of Iran and was transferred in DMEM media enriched with 10% Foetal Bovine Serum (FBS, Gibco). The cells were then added into T25 cell culture flasks and incubated at a temperature of 37 °C in the presence of 5% CO2. After 3–5 days, confluency of the cells was assessed. At 90% of confluency, cells were removed from the flask by trypsin treatment until their use in following experiments.
About 10^4 of HUVEC cells were suspended in […] of culture media enriched with 2% FBS, and were then transferred to 96-well plates, followed by an incubation at a temperature of 37 °C for 2 h. After incubation at a temperature of 37 °C in the presence of 5% CO2, various concentrations of nanobody and peptide (0–1000 nM) were added to cells, followed by an incubation for 24 and 48 h, respectively. Bevacizumab was used as positive control. After incubation, an MTT (3–(4,5-Dimethylthiazol-2-yl)-2,5-Diphenyltetrazolium Bromide) solution was added to each well and incubated for 4 h. Thereafter, MTT was removed and DMSO (dimethylsulfoxide) was added to the wells. Plates were incubated on shaker for 30 min, and optical densities (OD) were then measured using a spectrophotometer (Epoch).
(§1) Prism 5.0 Software (GraphPad, San Diego, CA) was used for statistical analysis. T test was performed for comparison between two groups. The statistical were considered significant when p values < .05.

[2] = tested on: HUVEC cells; assay: Tube formation assay with HUVEC cells and VEGF; assay type: cell-based; conditions: HUVEC on Geltrex, nanobody/peptide 1000 nM, VEGF 50 ng/ml, 4–8 h, 37 °C; control with VEGF alone formed complete tubes; Image J
Experimental: About 50 µl of Geltrex LDEV lacking growth factor (Gibco, Invitrogen) were added to 96-well plate followed by a 30–60 min period of incubation at a temperature of 37 °C. One thousands nM of nanobody and peptide were added in two separate microtubes. Then, 50 ng/ml of VEGF were added to the tubes and incubated at a temperature of 37 °C for 1 h. Bevacizumab was as positive control. About 10^4 of HUVEC cells with DMEM culture media plus each microtube’s mixture were seeded in 96-well plates containing Geltrex. Plates were incubated for 4–8 h (temperature of 37 °C in the presence of 5% CO2). After incubation, cells were assessed according to their conditions of tube formation, and tube-like structures analysed by Image J software.
as §1

[3] = 0–1000 nM, 24 h, read-out: IC50 (24 h)
[4] = 0–1000 nM, 48 h, read-out: IC50 (48 h)

Substance | IC50 [1, 3] [µM] | IC50 [1, 4] [µM] | inhibition of cell growth, 24 h ([1]; HUVEC, 24 h) [%] | inhibition of cell growth, 48 h ([1]; HUVEC, 48 h) [%] | tube-like structures formed [2] [%] | dose dependence of inhibition of cellular proliferation (in words) ([1]; HUVEC, 0–1000 nM) | time dependence of effect (in words) ([1]; HUVEC, 24 and 48 h)
Bevacizumab: Bevacizumab (positive control) | 0.2 | 0.15 | 87 | 97 | 20 | – | –
YY[Abu]AARAWSPYSSTVDAGDFRYWGQ-NH2 [peptide, designed 25-mer peptide from the CDR3 region of the VEGF nanobody] | 0.35 | 0.2 | 77 | 91 | 35 | dose dependent | time dependent
